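Where inhibition never reached the appropriate level, the endpoint shown equals the highest concentration tested. Otherwise, values were interpolated linearly from a five-concentration, 48-hour dose response in 96-well plates. Abbreviation: GI50, concentration required for 50% inhibition of growth. TGI: total growth inhibition.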
Key:
Test in all cases: NCI tumour cell line growth inhibition, 48 h
[1] = tested on: NCI-H23 lung
[2] = tested on: NCI-H522 lung
[3] = tested on: A498 renal
[4] = tested on: SK-MEL-28 melanoma
[5] = tested on: MOLT-4 leukemia
[6] = tested on: RPMI-8226 leukemia
[7] = tested on: SF-295 CNS
[8] = tested on: CCRF-CEM leukemia
[9] = tested on: OVCAR-5 ovarian
[10] = tested on: SR leukemia

For `Cc1c(Cl)cccc1C(=O)Nc1nc2c(s1)CN(C(=O)c1ccc(C(F)(F)F)cc1)CC2`, the GI50 [1] was 0.186 µM, the TGI [1] was > 50 µM and the GI50 [2] was 0.0252 µM. For the same compound, the TGI [2] was 2.33 µM, the GI50 [3] was 0.064 µM and the TGI [3] was 20.9 µM. The GI50 [4] was 4.11 µM, the TGI [4] was > 50 µM and the GI50 [5] was 0.193 µM. The TGI [5] was > 50 µM, the GI50 [6] was 0.198 µM and the TGI [6] was > 34.9 µM. The GI50 [7] was 0.0224 µM, the TGI [7] was > 50 µM and the GI50 [8] was 0.135 µM. For the same compound, the TGI [8] was > 50 µM, the GI50 [9] was 0.311 µM and the TGI [9] was > 50 µM. The GI50 [10] was 0.0294 µM and the TGI [10] was > 50 µM.
In the case of `COc1ccc2c(c1)c(CC(=O)[Se]C)c(C)n2C(=O)c1ccc(Cl)cc1`, the GI50 [1] is reported as > 0.376 µM, the TGI [1] is reported as > 0.894 µM and the GI50 [2] is reported as > 0.371 µM. For the same compound, the TGI [2] was > 0.677 µM, the GI50 [3] was 0.269 µM and the TGI [3] was > 0.561 µM. The GI50 [4] was > 0.202 µM, the TGI [4] was > 0.588 µM and the GI50 [5] was > 0.335 µM. For the same compound, the TGI [5] was > 1 µM, the GI50 [6] was > 0.542 µM and the TGI [6] was > 0.942 µM. The GI50 [7] was > 0.365 µM, the TGI [7] was > 0.58 µM and the GI50 [8] was > 0.391 µM. The TGI [8] was > 1 µM, the GI50 [9] was > 0.424 µM and the TGI [9] was > 1 µM. The GI50 [10] was > 0.507 µM and the TGI [10] was > 1 µM.
`O=C(c1ccc(Cl)cc1Cl)C1[C@H]2C(=O)N(c3ccc(Cc4ccc(N5C(=O)[C@@H]6ON(c7ccccc7)C(C(=O)c7ccc(Cl)cc7Cl)[C@@H]6C5=O)cc4)cc3)C(=O)[C@H]2ON1c1ccccc1` (stereo partly specified) was tested, and the TGI [1] was > 50 µM, the TGI [2] was > 50 µM and the TGI [3] was > 50 µM. The TGI [4] was > 50 µM, the TGI [5] was > 50 µM and the TGI [6] was > 50 µM. The TGI [7] was > 50 µM, the TGI [8] was > 50 µM and the TGI [9] was > 50 µM. The TGI [10] was > 50 µM.
Work on `Cc1cc2c(C(C)C)c(O)c(O)cc2c(O)c1-c1c(C)cc2c(C(C)C)c(O)c(O)cc2c1O` yielded a GI50 [1] of 18.4 µM, a TGI [1] of 37.5 µM and a GI50 [2] of 10.1 µM. For the same compound, the TGI [2] was 24.5 µM, the GI50 [3] was 14.1 µM and the TGI [3] was 32.2 µM. The GI50 [4] was 16.8 µM, the TGI [4] was 32.8 µM and the GI50 [5] was 10.6 µM. It also gave a TGI [5] of 44.9 µM, a GI50 [6] of 13.1 µM and a TGI [6] of 39.3 µM. For the same compound, the GI50 [7] was 22.5 µM, the TGI [7] was 58 µM and the GI50 [8] was 3.91 µM. The TGI [8] was 21.5 µM, the GI50 [9] was 17.9 µM and the TGI [9] was 36.5 µM. For the same compound, the GI50 [10] was 8.24 µM and the TGI [10] was 28.4 µM.
In the case of `CC1=C(C(=O)Nc2ccc3n[nH]c(C)c3c2)C(c2ccc(C(F)(F)F)cc2)CC(=O)N1` (stereo unspecified), the GI50 [1] is reported as > 17.6 µM, the TGI [1] is reported as > 25 µM and the GI50 [2] is reported as 9.13 µM. The TGI [2] was > 21.5 µM, the GI50 [3] was 6.3 µM and the TGI [3] was > 25 µM. The GI50 [4] was > 25 µM, the TGI [4] was > 25 µM and the GI50 [5] was 16.4 µM. For the same compound, the TGI [5] was > 25 µM, the GI50 [6] was > 25 µM and the TGI [6] was > 25 µM. The GI50 [7] was 16.4 µM, the TGI [7] was > 25 µM and the GI50 [8] was 11.8 µM. For the same compound, the TGI [8] was > 25 µM, the GI50 [9] was 16.2 µM and the TGI [9] was > 25 µM. The GI50 [10] was > 16.4 µM and the TGI [10] was > 25 µM.
For `CC1=C(c2cccc(O)c2)[C@H](c2ccc(OCCN3CC(CF)C3)cc2)Oc2ccc(O)cc21`, the GI50 [1] was 11.2 µM, the TGI [1] was 25.1 µM and the GI50 [2] was 16 µM. It also gave a TGI [2] of 32.8 µM, a GI50 [3] of 1.68 µM and a TGI [3] of 9.66 µM. For the same compound, the GI50 [4] was 5.3 µM, the TGI [4] was 18 µM and the GI50 [5] was 3.59 µM. For the same compound, the TGI [5] was 16 µM, the GI50 [6] was 8.11 µM and the TGI [6] was 27.1 µM. It also gave a GI50 [7] of 4.27 µM, a TGI [7] of 16.5 µM and a GI50 [8] of 4.72 µM. The TGI [8] was 21.2 µM, the GI50 [9] was 12.4 µM and the TGI [9] was 25 µM. The GI50 [10] was 3.76 µM and the TGI [10] was 36.2 µM.
With `O=C1/C(=C/c2ccccc2)CN(C(=O)CCN2CCOCC2)C/C1=C\c1ccccc1` the TGI [1] was 6.13 µM, the TGI [2] was 4.46 µM and the TGI [3] was 25.5 µM. The TGI [4] was 3.41 µM, the TGI [5] was 21.6 µM and the TGI [6] was 3.3 µM. The TGI [7] was 6.86 µM, the TGI [8] was 9.81 µM and the TGI [9] was 16.2 µM. It also gave a TGI [10] of 4.04 µM.
For `COC1CC(O[C@H]2CC[C@@]3(C)[C@H](CC[C@@H]4[C@@H]3CC[C@]3(C)[C@@H](C5=CC(=O)OC5)[C@@H](OC(C)=O)C[C@]43O)C2)OC(C)C1O` (stereo partly specified), the GI50 [1] was < 0.01 µM, the TGI [1] was < 0.01 µM and the GI50 [2] was < 0.01 µM. The TGI [2] was < 0.01 µM, the GI50 [3] was < 0.01 µM and the TGI [3] was < 0.0137 µM. For the same compound, the GI50 [4] was < 0.01 µM, the TGI [4] was < 0.01 µM and the GI50 [5] was < 0.01 µM. The TGI [5] was < 0.01 µM, the GI50 [6] was < 0.01 µM and the GI50 [7] was < 0.01 µM. The TGI [7] was < 0.01 µM, the GI50 [8] was < 0.01 µM and the GI50 [9] was < 0.01 µM. The TGI [9] was < 0.01 µM and the GI50 [10] was < 0.01 µM.
Compound `COc1cc2nc(N3CCCC3)nc(NCc3ccccc3)c2cc1OC` has a GI50 [1] of 11.2 µM, a TGI [1] of 25.2 µM and a GI50 [2] of 2.14 µM. For the same compound, the TGI [2] was 4.96 µM, the GI50 [3] was 2.16 µM and the TGI [3] was 8.56 µM. It also gave a GI50 [4] of 1.75 µM, a TGI [4] of 3.19 µM and a GI50 [5] of 2.89 µM. It also gave a TGI [5] of 9.1 µM, a GI50 [6] of 2.44 µM and a TGI [6] of 5.99 µM. For the same compound, the GI50 [7] was 1.84 µM, the TGI [7] was 3.46 µM and the GI50 [8] was 2.55 µM. It also gave a TGI [8] of 8.07 µM, a GI50 [9] of 4.63 µM and a TGI [9] of 16.8 µM. It also gave a GI50 [10] of 1.53 µM and a TGI [10] of 5.3 µM.
For `N#C/C(=C\c1ccsc1)c1nc2ccccc2o1`, the GI50 [1] was > 100 µM, the TGI [1] was > 100 µM and the GI50 [2] was 50.6 µM. For the same compound, the TGI [2] was > 100 µM, the GI50 [3] was 33.6 µM and the TGI [3] was > 100 µM. For the same compound, the GI50 [4] was > 100 µM, the TGI [4] was > 100 µM and the GI50 [5] was > 100 µM. For the same compound, the TGI [5] was > 100 µM, the GI50 [6] was 61.7 µM and the TGI [6] was > 100 µM. The GI50 [7] was 31.5 µM, the TGI [7] was > 100 µM and the TGI [8] was 26.3 µM. For the same compound, the GI50 [9] was > 100 µM, the TGI [9] was > 100 µM and the GI50 [10] was > 100 µM. For the same compound, the TGI [10] was > 100 µM.
In the case of `CC(C)(C)C(=O)OCC1C(=O)OCC1C(=O)N1Cc2cc3ccccc3nc2C1` (stereo unspecified), the TGI [1] is reported as 13.6 µM, the TGI [2] is reported as 2.2 µM and the TGI [3] is reported as 26 µM. For the same compound, the TGI [4] was 10.8 µM, the TGI [5] was 4.06 µM and the TGI [6] was 4.82 µM. For the same compound, the TGI [7] was 27.4 µM, the TGI [8] was 5.89 µM and the TGI [9] was 23.1 µM. The TGI [10] was 3.77 µM.
For `Cc1ccccc1C1OC(=O)c2ccc3ccccc3c21` (stereo unspecified), the TGI [1] was 20.7 µM, the TGI [2] was 4.89 µM and the TGI [3] was 8.51 µM. For the same compound, the TGI [4] was 10.1 µM, the TGI [5] was 7.18 µM and the TGI [6] was 5.43 µM. The TGI [7] was > 31.6 µM, the TGI [8] was 17.6 µM and the TGI [9] was > 31.6 µM. For the same compound, the TGI [10] was 7.96 µM.
In the case of `Cn1ncnc1[C@H]1c2n[nH]c(=O)c3cc(F)cc(c23)N[C@@H]1c1ccc(F)cc1`, the GI50 [1] is reported as > 34.5 µM, the TGI [1] is reported as > 100 µM and the GI50 [2] is reported as > 100 µM. The TGI [2] was > 100 µM, the GI50 [3] was 28.6 µM and the TGI [3] was > 100 µM. The GI50 [4] was > 100 µM, the TGI [4] was > 100 µM and the GI50 [5] was 5.07 µM. The TGI [5] was > 100 µM, the GI50 [6] was > 100 µM and the TGI [6] was > 100 µM. For the same compound, the GI50 [7] was 0.44 µM, the TGI [7] was > 19.9 µM and the GI50 [8] was 1.27 µM. The TGI [8] was > 100 µM, the GI50 [9] was > 100 µM and the TGI [9] was > 100 µM. The GI50 [10] was 0.0417 µM and the TGI [10] was > 100 µM.

— PubChem BioAssay (NCI)
